The source of these data is PubChem BioAssay AID788 (SRMLSC, 2007).

Test [1] deals with S. cerevisiae wild-type background strain growth inhibition. In words: vps1Δ apl2Δ double mutant yeast growth inhibitors – S. cerevisiae, background strain comparison, post-Golgi transport modulator project, dose response (AID 788). The settings on record: S. cerevisiae vps1Δ apl2Δ growth inhibition, dose response; measured here: wild-type background strain growth.
For test [2], the system named is S. cerevisiae vps1Δ apl2Δ growth inhibition, dose response. The description is as above.

Structures are written as SMILES. Active and inactive are the calls of the source. The rule behind the calls is not given here.

With `COc1cccc(-c2cc(C(=O)N3CCN(C(c4ccccc4)c4ccccc4)CC3)no2)c1`, the IC50 in test [1] was over 10 µM; in test [2] it was > 10 µM (inactive).

With `CCn1c(=O)[nH]c2cc(C(=O)N3CCN(c4ccccc4)CC3)ccc2c1=O`, the IC50 in test [1] was over 10 µM; in test [2], > 10 µM (inactive).

Regarding `Cn1c(=O)c2nc(NCc3ccccc3)cnc2n(C)c1=O`, the IC50 in test [1] was over 10 µM; in test [2] it was > 10 µM (inactive).

With `CCCC(=O)N1CCN(c2ccc(NC(=O)c3cc4ccccc4o3)cc2Cl)CC1`, the IC50 is 19.2 µM in test [1] and 20.8 µM (inactive) in test [2].

Take `O=C(CCC(=O)OCC(=O)c1ccc(F)cc1)NC1CCCCC1`: the concentration for half-maximal inhibition (IC50) was over 10 µM in test [1] and > 10 µM (inactive) in test [2].

Regarding `O=C1CC(N2CCN(c3ccc(Cl)c(Cl)c3)CC2)C(=O)N1` (stereo not drawn), the IC50 was over 10 µM in test [1] and > 10 µM (inactive) in test [2].

In the case of `Cc1ccc(C(C)C)c(OCCCN2CC(C)OC(C)C2)c1` (stereo not drawn), the half-maximal inhibitory concentration (IC50) is over 10 µM in test [1] and 9.78 µM in test [2].

In the case of `CCC(C)(C)n1nnnc1C(c1cc2cc3c(cc2[nH]c1=O)OCO3)N1CCN(C)CC1` (stereo not drawn), the IC50 in test [1] was over 10 µM; in test [2], > 10 µM (inactive).

Take `CC(=O)NC1C(c2nc3ccccc3s2)=C(c2ccccc2)C(=O)N1c1ccc(C)cc1` (stereo not drawn): the IC50 in test [1] was 1.92 µM; in test [2] it was 2.62 µM (inactive).

`CCCCCCCCNc1ncnc2ccccc12`: the concentration for half-maximal inhibition (IC50) is 14.8 µM in test [1] and > 10 µM (inactive) in test [2].

Turning to `O=C(Nc1nnc(-c2ccccc2)o1)c1ccc(Cl)cc1`, the IC50 in test [1] was 0.65 µM; in test [2] it was 2.46 µM (inactive).

`COCCCNc1ccnc2c(Cl)cccc12`: the IC50 was over 10 µM in test [1] and > 10 µM (inactive) in test [2].

Consider `CCCCS(=O)(=O)/C=C\C=C/S(=O)(=O)CCCC`, for which the IC50 in test [1] is 13.9 µM; in test [2] it was 12.1 µM.

Regarding `CC1CCCN(CCOCCOc2ccc(Cl)cc2Br)C1` (stereo not drawn), the IC50 was over 10 µM in test [1] and 2.5 µM in test [2].

On to `Cc1cccnc1Nc1nc(-c2ccccn2)cs1`, for which the IC50 in test [1] was over 10 µM; in test [2], 22.7 µM.

Turning to `COCCNc1cc(C)nc2c3c(C)cc(C)nc3nn12`, the IC50 was over 10 µM in test [1] and > 10 µM (inactive) in test [2].

In the case of `O=Cc1cc2ccccc2nc1SCc1ccc(Cl)cc1`, the IC50 in test [1] was over 10 µM; in test [2], > 10 µM (inactive).

As to `COc1ccc(NC(=S)NC(NC(=O)c2ccc(Cl)cc2Cl)C(Cl)(Cl)Cl)c([N+](=O)[O-])c1` (stereo not drawn), the IC50 in test [1] was over 10 µM; in test [2], > 10 µM (inactive).

Regarding `CC1CCCCN1CCNC(=O)Cn1nc(-c2ccccc2)ccc1=O` (stereo not drawn), the IC50 in test [1] was over 10 µM; in test [2], > 10 µM (inactive).

With `COCCNC(=O)C(c1ccc(F)cc1)N(CC1CCCO1)C(=O)CCC(=O)Nc1ccccn1` (stereo not drawn), the IC50 was over 10 µM in test [1] and > 10 µM (inactive) in test [2].

On to `N[C@@H](Cc1c[nH]c2ccccc12)c1nnc(SCc2ccc(Cl)cc2)o1`, for which the IC50 is 20.4 µM in test [1] and 24.8 µM (inactive) in test [2].

As for `COc1ccc(CN(C(=O)Cc2cccs2)C(C(=O)NC2CCCC2)c2ccncc2)cc1` (stereo not drawn), the IC50 was over 10 µM in test [1] and > 10 µM (inactive) in test [2].

Take `CCN(CC)CCn1nc(C)nc1-c1ccccc1O`: the IC50 in test [1] was over 10 µM; in test [2] it was > 10 µM (inactive).

With `Cc1cc(=O)[nH]c(SCC(=O)c2ccc(C)c(C)c2)n1`, the IC50 in test [1] was 2.31 µM; in test [2], 2.13 µM.

Take `Cc1ccc(S(=O)(=O)c2c(C)nn(C(C)(C)C)c2OC(=O)c2ccc(Br)o2)cc1`: the IC50 in test [1] is over 10 µM; in test [2], > 10 µM (inactive).

Take `COC(=O)c1ccc(CSc2nnc(NC(C)C)s2)cc1`: the IC50 in test [1] was over 10 µM; in test [2], > 10 µM (inactive).

As to `COc1ccccc1N1CCN(CC(O)c2ccc3cc[nH]c3c2)CC1` (stereo not drawn), the concentration for half-maximal inhibition (IC50) is over 10 µM in test [1] and > 10 µM (inactive) in test [2].

As for `Cc1cc(C)n2nc(C(=O)NCc3ccccc3)cc2n1`, the IC50 in test [1] was over 10 µM; in test [2] it was > 10 µM (inactive).

Turning to `CN1/C(=C/C2CC(=O)NC2=O)C(C)(C)c2ccccc21` (stereo not drawn), the IC50 in test [1] is over 10 µM; in test [2] it was > 10 µM (inactive).

Turning to `CCOc1cccc(C(=O)Nc2cccnc2)c1`, the values for the IC50 in test [1] and in test [2] were over 10 µM and > 10 µM (inactive), respectively.

For `CCOC(=O)c1c(CN2CCCCC2C)oc2ccc(OC)cc12` (stereo not drawn), the IC50 in test [1] is over 10 µM; in test [2] it was > 10 µM (inactive).

For `Cc1cccc(CS(=O)(=O)Cc2ccc(C(=O)NCCCN3CCCC3)o2)c1`, the IC50 in test [1] was over 10 µM; in test [2] it was > 10 µM (inactive).

For `CCCCCOc1ccc(CN2CCOCC2)cc1Cl`, the IC50 in test [1] is over 10 µM; in test [2], 3.92 µM.

For the compound `O=C1c2cccc3c([N+](=O)[O-])ccc(c23)C(=O)N1c1ccc(Cl)cn1`, the values for the IC50 in test [1] and in test [2] were 6.08 µM and 18 µM (inactive), respectively.

As usually defined, the IC50 is the point on the concentration scale where inhibition reaches its midpoint.
